Reference: ChEMBL document CHEMBL3045188, “Synthesis and antibacterial, antimycobacterial and docking studies of novel N-piperazinyl fluoroquinolones” (Med Chem Res, 2013)
≈ marks a conversion by molar mass, not a printed value. Calls of active or inactive are those of the source. The rule behind the calls is not given here.

Tests used:
Pseudomonas aeruginosa = assay: Antibacterial activity against Pseudomonas aeruginosa ATCC 25619 assessed as growth inhibition after 18 hr by broth microdilution method; assay type: functional; conditions: ATCC 25619, 18 h
Corynebacterium = assay: Antibacterial activity against Corynebacterium ATCC 29355 assessed as growth inhibition after 18 hr by broth microdilution method; assay type: functional; conditions: ATCC 29355, 18 h
Staphylococcus aureus = assay: Antibacterial activity against Staphylococcus aureus ATCC 25365 assessed as growth inhibition after 18 hr by broth microdilution method; assay type: functional; conditions: ATCC 25365, 18 h
[1] = test system: Mycobacterium tuberculosis; assay: Antimycobacterial activity against Mycobacterium tuberculosis H37Rv assessed as growth inhibition after 21 days by broth dilution assay; assay type: functional
Escherichia coli = assay: Antibacterial activity against Escherichia coli MTCC 1089 assessed as growth inhibition after 18 hr by broth microdilution method; assay type: functional; conditions: MTCC 1089, 18 h
Vero = assay: Cytotoxicity against Chlorocebus aethiops (African green monkey) Vero cells assessed as inhibition of cell viability after 96 hr by MTT assay; assay type: cell-based; conditions: Chlorocebus sabaeus
[2] = Selectivity index, ratio of IC50 for african green monkey Vero cells to MIC for Mycobacterium tuberculosis H37Rv; assay type: toxicity, cell-based; conditions: read-out: Selectivity Index

| Structure (SMILES) | MIC (Pseudomonas aeruginosa) [µg/mL] | MIC (Corynebacterium) [µg/mL] | MIC (Staphylococcus aureus) [µg/mL] | MIC [1] | MIC (Escherichia coli) [µg/mL] | IC50 (Vero) [µg/mL] | MIC ([1]; 504 h) [µg/mL] | selectivity ratio [2] |
| --- | --- | --- | --- | --- | --- | --- | --- | --- |
| CCn1cc(C(=O)O)c(=O)c2cc(F)c(N3CCN(c4nnc(SCC(=O)c5ccccc5)s4)CC3)cc21 | > 64 | 16 (≈ 28.9 µM) | 32 (≈ 57.8 µM) | inactive | > 64 | – | – | – |
| CCn1cc(C(=O)O)c(=O)c2cc(F)c(N3CCN(c4nnc(SCC(=O)c5ccc([N+](=O)[O-])cc5)s4)CC3)cc21 | > 64 | 1 (≈ 1.67 µM) | 2 (≈ 3.34 µM) | – | 16 (≈ 26.7 µM) | > 10.2 | 1 (≈ 1.67 µM) | > 10.2 |
| O=C(CSc1nnc(N2CCN(c3cc4c(cc3F)c(=O)c(C(=O)O)cn4C3CC3)CC2)s1)c1ccc(Cl)cc1 | > 64 | 2 (≈ 3.33 µM) | 4 (≈ 6.67 µM) | – | 16 (≈ 26.7 µM) | 3 (≈ 5 µM) | 1 (≈ 1.67 µM) | 3 |
| CCn1cc(C(=O)O)c(=O)c2cc(F)c(N3CCN(c4nnc(SCC(=O)c5ccc(OC)cc5)s4)CC3)cc21 | > 64 | 1 (≈ 1.71 µM) | 2 (≈ 3.43 µM) | – | > 64 | – | 10 (≈ 17.1 µM) | – |
| COc1ccc(C(=O)CSc2nnc(N3CCN(c4cc5c(cc4F)c(=O)c(C(=O)O)cn5C4CC4)CC3)s2)cc1 | > 64 | 1 (≈ 1.68 µM) | 2 (≈ 3.36 µM) | – | 32 (≈ 53.7 µM) | – | 10 (≈ 16.8 µM) | – |
| O=C(O)c1cn(C2CC2)c2cc(N3CCNCC3)c(F)cc2c1=O [CIPROFLOXACIN] | 4 (≈ 12.1 µM) | – | 2 (≈ 6.04 µM) | – | – | – | – | – |
| CCn1cc(C(=O)O)c(=O)c2cc(F)c(N3CCN(c4nnc(SCC(=O)c5ccc(Br)cc5)s4)CC3)cc21 | > 64 | 4 (≈ 6.32 µM) | 8 (≈ 12.6 µM) | – | 32 (≈ 50.6 µM) | 5 (≈ 7.9 µM) | 2.5 (≈ 3.95 µM) | 2 |
| CO[C@H]1/C=C/O[C@@]2(C)Oc3c(C)c(O)c4c(O)c(c(/C=N/N5CCN(C)CC5)c(O)c4c3C2=O)NC(=O)/C(C)=C\C=C\[C@H](C)[C@H](O)[C@@H](C)[C@@H](O)[C@@H](C)[C@H](OC(C)=O)[C@@H]1C [RIFAMPIN] | – | – | – | – | – | > 10 | 1 (≈ 1.22 µM) | > 10 |
| O=C(CSc1nnc(N2CCN(c3cc4c(cc3F)c(=O)c(C(=O)O)cn4C3CC3)CC2)s1)c1ccc(F)cc1 | 32 (≈ 54.8 µM) | 4 (≈ 6.85 µM) | 8 (≈ 13.7 µM) | – | 16 (≈ 27.4 µM) | – | 5 (≈ 8.57 µM) | – |
| O=C(CSc1nnc(N2CCN(c3cc4c(cc3F)c(=O)c(C(=O)O)cn4C3CC3)CC2)s1)c1ccc([N+](=O)[O-])cc1 | > 64 | 0.5 (≈ 0.819 µM) | 1 (≈ 1.64 µM) | – | 32 (≈ 52.4 µM) | > 6.1 | 0.5 (≈ 0.819 µM) | > 12.2 |
| CCn1cc(C(=O)O)c(=O)c2cc(F)c(N3CCN(c4nnc(SCC(=O)c5ccc(Cl)cc5)s4)CC3)cc21 | > 64 | 2 (≈ 3.4 µM) | 4 (≈ 6.8 µM) | – | 32 (≈ 54.4 µM) | 4 (≈ 6.8 µM) | 1.5 (≈ 2.55 µM) | 2.67 |
| CCn1cc(C(=O)O)c(=O)c2cc(F)c(N3CCNCC3)cc21 [NORFLOXACIN] | 4 (≈ 12.5 µM) | 2 (≈ 6.26 µM) | 2 (≈ 6.26 µM) | – | 2 (≈ 6.26 µM) | – | – | – |
| O=C(CSc1nnc(N2CCN(c3cc4c(cc3F)c(=O)c(C(=O)O)cn4C3CC3)CC2)s1)c1ccccc1 | > 64 | 16 (≈ 28.3 µM) | 16 (≈ 28.3 µM) | inactive | 32 (≈ 56.6 µM) | – | – | – |
| NNC(=O)c1ccncc1 [ISONIAZID] | – | – | – | – | – | > 12 | 1.5 (≈ 10.9 µM) | – |
| CCn1cc(C(=O)O)c(=O)c2cc(F)c(N3CCN(c4nnc(SCC(=O)c5ccc(F)cc5)s4)CC3)cc21 | 32 (≈ 56 µM) | 2 (≈ 3.5 µM) | 4 (≈ 7 µM) | – | > 64 | – | 5 (≈ 8.75 µM) | – |
| O=C(CSc1nnc(N2CCN(c3cc4c(cc3F)c(=O)c(C(=O)O)cn4C3CC3)CC2)s1)c1ccc(Br)cc1 | > 64 | 4 (≈ 6.21 µM) | 8 (≈ 12.4 µM) | – | 16 (≈ 24.8 µM) | 6 (≈ 9.31 µM) | 2 (≈ 3.1 µM) | 3 |
| CCn1cc(C(=O)O)c(=O)c2cc(F)c(N3CCN(c4nnc(SCC(=O)c5ccc(C)cc5)s4)CC3)cc21 | > 64 | 4 (≈ 7.05 µM) | 8 (≈ 14.1 µM) | inactive | > 64 | – | – | – |
| Cc1ccc(C(=O)CSc2nnc(N3CCN(c4cc5c(cc4F)c(=O)c(C(=O)O)cn5C4CC4)CC3)s2)cc1 | > 64 | 4 (≈ 6.9 µM) | 8 (≈ 13.8 µM) | inactive | 16 (≈ 27.6 µM) | – | – | – |
